Measured values published in patent US9938269B2, “Inhibitor compounds of phosphodiesterase type 10A” (ABBVIE INC., priority 2011, dated 2018).
Where a name gives a salt, the structure may show the parent alone.

Key:
PDE10A (human) = target: T1, PDE10A (human) (Homo sapiens, UniProt Q9Y233); test: Measurement of PDE activity (HTRF cAMP kit), human PDE10A; format: biochemical; conditions: PDE enzymatic reaction, substrate 20 nM for PDE10, 60 minutes at 29 C
T1 construct: purchased BPS Bioscience
Procedure, shortened: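 HTRF detection of cAMP left after hydrolysis, expressed as percent of uninhibited control to derive IC50. Reaction: serially diluted inhibitor mixed with recombinant enzyme, started with 20 nM cAMP, 60 min at 29 °C in Tris-HCl pH 7.5 buffer containing MgCl2 and BSA.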

[1] = Determination of the microsomal half-life, rat liver microsomes; conditions: rat, liver microsomes, pH 7.4
Procedure: The test substances were incubated in a concentration of 0.5 μM as follows:
0.5 μM test substance are preincubated together with liver microsomes from different species (from rat, human or other species) (0.25 mg of microsomal protein/10 in 0.05 M potassium phosphate buffer of pH 7.4 in microtiter plates at 37° C. for 5 min. The reaction is started by adding NADPH (1 mg/mL). After 0, 5, 10, 15, 20 and 30 min., 50 μl aliquots are removed, and the reaction is immediately stopped and cooled with the same volume of acetonitrile. The samples are frozen until analyzed. The remaining concentration of undegraded test substance is determined by MSMS. The half-life (T½) is determined from the gradient of the signal of test substance/unit time plot, it being possible to calculate the half-life of the test substance, assuming first order kinetics, from the decrease in the concentration of the compound with time. The microsomal clearance (mCl) is calculated from mCl=ln 2/T½/(content of microsomal protein in mg/ml)×1000 [ml/min/mg]

[2] = Determination of the microsomal half-life, human liver microsomes; conditions: human, liver microsomes, pH 7.4

T1 sequence (Q9Y233 whole entry): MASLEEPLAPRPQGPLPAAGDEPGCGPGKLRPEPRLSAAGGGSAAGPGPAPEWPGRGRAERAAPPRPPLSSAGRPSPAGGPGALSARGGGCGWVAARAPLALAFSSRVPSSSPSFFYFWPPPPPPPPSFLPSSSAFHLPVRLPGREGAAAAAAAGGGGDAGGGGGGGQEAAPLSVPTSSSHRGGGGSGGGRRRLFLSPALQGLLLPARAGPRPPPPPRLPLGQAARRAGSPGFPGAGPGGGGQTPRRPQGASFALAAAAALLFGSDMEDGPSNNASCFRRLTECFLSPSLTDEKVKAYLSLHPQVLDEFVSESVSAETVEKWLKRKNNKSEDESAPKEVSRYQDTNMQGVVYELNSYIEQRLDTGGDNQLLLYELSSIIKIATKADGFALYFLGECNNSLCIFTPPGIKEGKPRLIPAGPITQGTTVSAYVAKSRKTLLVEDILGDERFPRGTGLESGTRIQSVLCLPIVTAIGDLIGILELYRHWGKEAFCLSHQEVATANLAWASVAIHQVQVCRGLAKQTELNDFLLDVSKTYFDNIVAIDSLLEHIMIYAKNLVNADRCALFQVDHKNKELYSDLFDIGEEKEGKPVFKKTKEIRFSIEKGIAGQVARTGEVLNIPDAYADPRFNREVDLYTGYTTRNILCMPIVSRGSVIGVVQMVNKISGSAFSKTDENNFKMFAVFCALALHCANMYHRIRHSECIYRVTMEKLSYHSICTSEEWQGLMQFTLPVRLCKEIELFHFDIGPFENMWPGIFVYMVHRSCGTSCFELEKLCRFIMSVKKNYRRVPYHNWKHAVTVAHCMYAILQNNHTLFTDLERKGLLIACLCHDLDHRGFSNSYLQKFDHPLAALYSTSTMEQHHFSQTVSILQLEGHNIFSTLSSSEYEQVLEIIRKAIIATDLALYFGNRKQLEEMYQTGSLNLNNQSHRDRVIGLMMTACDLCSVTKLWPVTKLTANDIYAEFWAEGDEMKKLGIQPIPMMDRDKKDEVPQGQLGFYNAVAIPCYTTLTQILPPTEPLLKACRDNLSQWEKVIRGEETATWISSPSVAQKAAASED

| IC50 (PDE10A (human)) | microsomal CLint at 0.5 μM [1] | microsomal CLint at 0.5 μM [2] | SMILES |
| --- | --- | --- | --- |
| 100 to 200 nM | 100 to 220 µL/min/mg | 100 to 220 µL/min/mg | O=C1c2c(cccc2NC2CCS(=O)(=O)C2)CN1CCc1ccc2ccccc2n1 (stereo not drawn) [Example 190, 7-(1,1-Dioxo-tetrahydro-thiophen-3-ylamino)-2-(2-quinolin-2-yl-ethyl)-2,3-dihydro-isoindol-1-one] |
| 200 to 500 nM | < 100 µL/min/mg | < 100 µL/min/mg | Cn1nccc1-c1cccc2c1C(=O)N(CCc1nc3ccccc3[nH]1)C2 [Example 313, 2-[2-(1H-Benzoimidazol-2-yl)-ethyl]-7-(2-methyl-2H-pyrazol-3-yl)-2,3-dihydro-isoindol-1-one trifluoroacetate] |
| < 100 nM | 100 to 220 µL/min/mg | > 220 µL/min/mg | O=C1c2c(cccc2N2CCCOCC2)CN1CCc1ccc2ccccc2n1 [Example 110, 7-[1,4]Oxazepan-4-yl-2-(2-quinolin-2-yl-ethyl)-2,3-dihydro-isoindol-1-one hydrochloride] |
| < 100 nM | 100 to 220 µL/min/mg | 100 to 220 µL/min/mg | Cc1ccc(CCN2Cc3nccc(N4CCOCC4)c3C2=O)nc1C [compound 554, 6-[2-(5,6-Dimethyl-2-pyridyl)ethyl]-4-morpholino-7H-pyrrolo[3,4-b]pyridin-5-one] |
| < 100 nM | 100 to 220 µL/min/mg | 100 to 220 µL/min/mg | O=C1c2c(N3CCC(C(F)F)C3)ccnc2CN1CCc1nc2ccccc2s1 (stereo not drawn) [compound 385, 6-[2-(1,3-Benzothiazol-2-yl)ethyl]-4-[3-(difluoromethyl)pyrrolidin-1-yl]-7H-pyrrolo[3,4-b]pyridin-5-one] |
| < 100 nM | 100 to 220 µL/min/mg | < 100 µL/min/mg | O=C1c2c(N3CCS(=O)(=O)CC3)ccnc2CN1CCc1nc2ccccc2s1 [compound 390, 6-[2-(1,3-Benzothiazol-2-yl)ethyl]-4-(1,1-dioxo-1,4-thiazinan-4-yl)-7H-pyrrolo[3,4-b]pyridin-5-one trifluoroacetate] |
| < 100 nM | > 220 µL/min/mg | 100 to 220 µL/min/mg | COc1ccc(-c2cn[nH]c2)c2c1CN(CCc1ccc3ccccc3n1)C2=O [Example 180, 4-Methoxy-7-(1H-pyrazol-4-yl)-2-(2-quinolin-2-yl-ethyl)-2,3-dihydro-isoindol-1-one] |
| < 100 nM | < 100 µL/min/mg | < 100 µL/min/mg | Cc1ccc2c(c1)nc(CCN1Cc3nccc(N4CCOCC4)c3C1=O)n2C [compound 415, 6-[2-(1,5-Dimethyl-1H-benzoimidazol-2-yl)-ethyl]-4-morpholin-4-yl-6,7-dihydro-pyrrolo[3,4-b]pyridin-5-one] |
| 100 to 200 nM | 100 to 220 µL/min/mg | < 100 µL/min/mg | O=C1c2c(cccc2-c2cn[nH]c2)CN1CCc1cn2ccccc2n1 [Example 242, 2-(2-Imidazo[1,2-a]pyridin-2-yl-ethyl)-7-(1H-pyrazol-4-yl)-2,3-dihydro-isoindol-1-one] |
| < 100 nM | 100 to 220 µL/min/mg | > 220 µL/min/mg | Cc1ncccc1COc1cccc2c1C(=O)N(CCc1ccc3ccccc3n1)C2 [Example 179, 7-(2-Methyl-pyridin-3-ylmethoxy)-2-(2-quinolin-2-yl-ethyl)-2,3-dihydro-isoindol-1-one] |
| < 100 nM | < 100 µL/min/mg | < 100 µL/min/mg | O=C1c2c(cccc2N2CCOCC2)CN1CCc1cn2ccccc2n1 [Example 310, 2-(2-Imidazo[1,2-a]pyridin-2-yl-ethyl)-7-morpholin-4-yl-2,3-dihydro-isoindol-1-one] |
| 200 to 500 nM | < 100 µL/min/mg | 100 to 220 µL/min/mg | O=C1c2c(cccc2N2CCN(c3ccncc3)CC2)CN1CCc1ccc2ccccc2n1 [Example 106, 7-(4-Pyridin-4-yl-piperazin-1-yl)-2-(2-quinolin-2-yl-ethyl)-2,3-dihydro-isoindol-1-one] |
| < 100 nM | 100 to 220 µL/min/mg | 100 to 220 µL/min/mg | O=C1c2c(N3CCC4(COC4)C3)ccnc2CN1CCc1ccc2ccccc2n1 [Example 257, 4-(2-Oxa-6-aza-spiro[3.4]oct-6-yl)-6-(2-quinolin-2-yl-ethyl)-6,7-dihydro-pyrrolo[3,4-b]pyridin-5-one] |
| < 100 nM | 100 to 220 µL/min/mg | > 220 µL/min/mg | O=C1c2c(cccc2N2CCC3(COC3)C2)CN1CCc1ccc2ccccc2n1 [Example 134, 7-(2-Oxa-6-aza-spiro[3.4]oct-6-yl)-2-(2-quinolin-2-yl-ethyl)-2,3-dihydro-isoindol-1-one] |
| < 100 nM | 100 to 220 µL/min/mg | 100 to 220 µL/min/mg | O=C1c2c(C3CCOCC3)ccnc2CN1CCc1ccc2ccccc2n1 [Example 297, 6-(2-Quinolin-2-yl-ethyl)-4-(tetrahydro-pyran-4-yl)-6,7-dihydro-pyrrolo[3,4-b]pyridin-5-one] |
| 200 to 500 nM | > 220 µL/min/mg | 100 to 220 µL/min/mg | COc1ccc(-c2ccc(F)c3c2C(=O)N(CCc2cn4ccccc4n2)C3)cc1 [Example 380, 4-Fluoro-2-(2-imidazo[1,2-a]pyridin-2-yl-ethyl)-7-(4-methoxy-phenyl)-2,3-dihydro-isoindol-1-one] |
| < 100 nM | < 100 µL/min/mg | < 100 µL/min/mg | O=C1c2c(cccc2-c2ccncc2)CN1CCc1nc2ccccc2s1 [Example 223, 2-(2-Benzothiazol-2-yl-ethyl)-7-pyridin-4-yl-2,3-dihydro-isoindol-1-one trifluoroacetate] |
| 200 to 500 nM | < 100 µL/min/mg | < 100 µL/min/mg | CN1CCN(c2cccc3c2C(=O)N(CCc2ccc4ccccc4n2)C3)CC1 [Example 107, 7-(4-Methyl-piperazin-1-yl)-2-(2-quinolin-2-yl-ethyl)-2,3-dihydro-isoindol-1-one] |
| < 100 nM | 100 to 220 µL/min/mg | 100 to 220 µL/min/mg | O=C1c2c(-c3cccnc3)ccnc2CN1CCc1ccc2ccccc2n1 [Example 329, 4-Pyridin-3-yl-6-(2-quinolin-2-yl-ethyl)-6,7-dihydro-pyrrolo[3,4-b]pyridin-5-one] |
| < 100 nM | 100 to 220 µL/min/mg | 100 to 220 µL/min/mg | O=C1c2c(cncc2-c2ccncc2)CN1CCc1ccc2ccccc2n1 [Example 2, 7-Pyridin-4-yl-2-(2-quinolin-2-yl-ethyl)-2,3-dihydro-pyrrolo[3,4-c]pyridin-1-one] |
| < 100 nM | 100 to 220 µL/min/mg | 100 to 220 µL/min/mg | O=C1Cc2ccc(-c3cccc4c3C(=O)N(CCc3ccc5ccccc5n3)C4)cc2N1 [Example 96, 6-[3-Oxo-2-(2-quinolin-2-yl-ethyl)-2,3-dihydro-1H-isoindol-4-yl]-1,3-dihydro-indol-2-one] |
| < 100 nM | < 100 µL/min/mg | > 220 µL/min/mg | Cn1c(CCN2Cc3cccc(-c4cccnc4)c3C2=O)nc2ccccc21 [Example 196, 2-[2-(1-Methyl-1H-benzoimidazol-2-yl)-ethyl]-7-pyridin-3-yl-2,3-dihydro-isoindol-1-one] |
| < 100 nM | 100 to 220 µL/min/mg | 100 to 220 µL/min/mg | COc1ccc(-c2cncnc2)c2c1CN(CCc1ccc3ccccc3n1)C2=O [Example 183, 4-Methoxy-7-pyrimidin-5-yl-2-(2-quinolin-2-yl-ethyl)-2,3-dihydro-isoindol-1-one] |
| < 100 nM | < 100 µL/min/mg | < 100 µL/min/mg | O=C1c2c(N3CCOCC3)ccc(F)c2CN1CCc1cn2ccccc2n1 [Example 295, 4-Fluoro-2-(2-imidazo[1,2-a]pyridin-2-yl-ethyl)-7-morpholin-4-yl-2,3-dihydro-isoindol-1-one] |
| < 100 nM | 100 to 220 µL/min/mg | < 100 µL/min/mg | O=C1c2c(-c3ccncc3)ccnc2CN1CCc1nc2ccc(Cl)cc2s1 [compound 403, 6-[2-(6-Chloro-1,3-benzothiazol-2-yl)ethyl]-4-(4-pyridyl)-7H-pyrrolo[3,4-b]pyridin-5-one] |
| 200 to 500 nM | < 100 µL/min/mg | < 100 µL/min/mg | Cc1ccc(CCN2Cc3nccc(N4CCS(=O)(=O)CC4)c3C2=O)nc1 [compound 479, 4-(1,1-Dioxo-1,4-thiazinan-4-yl)-6-[2-(5-methyl-2-pyridyl)ethyl]-7H-pyrrolo[3,4-b]pyridin-5-one trifluoroacetate] |
| 100 to 200 nM | 100 to 220 µL/min/mg | < 100 µL/min/mg | O=C1c2cccc(-c3ccnnc3)c2CN1CCc1ccc2ccccc2n1 [Example 353, 4-Pyridazin-4-yl-2-(2-quinolin-2-yl-ethyl)-2,3-dihydro-isoindol-1-one] |
| 100 to 200 nM | < 100 µL/min/mg | < 100 µL/min/mg | Cc1ncc(-c2ccnc3c2C(=O)N(CCc2nc4ccccc4s2)C3)cn1 [compound 445, 6-[2-(1,3-Benzothiazol-2-yl)ethyl]-4-(2-methylpyrimidin-5-yl)-7H-pyrrolo[3,4-b]pyridin-5-one] |
| < 100 nM | < 100 µL/min/mg | < 100 µL/min/mg | Cc1ccc2c(c1)nc(CCN1Cc3nccc(NC4COC4)c3C1=O)n2C [compound 416, 6-[2-(1,5-Dimethyl-1H-benzoimidazol-2-yl)-ethyl]-4-(oxetan-3-ylamino)-6,7-dihydro-pyrrolo[3,4-b]pyridin-5-one] |
| < 100 nM | < 100 µL/min/mg | < 100 µL/min/mg | Cn1nccc1-c1ccc(F)c2c1C(=O)N(CCc1cn3ccccc3n1)C2 [Example 382, 4-Fluoro-2-(2-imidazo[1,2-a]pyridin-2-yl-ethyl)-7-(2-methyl-2H-pyrazol-3-yl)-2,3-dihydro-isoindol-1-one] |
